Source: US10233182B2, “Substituted spirocyclic inhibitors of autotaxin” (X-Rx, Inc., priority 2014, dated 2019)
Where a name gives a salt, the structure may show the parent alone.

Target: Autotaxin (Homo sapiens (Human), UniProt Q13822)
Experiment: Autotaxin LPC Cascade Assay
Assay type: biochemical
Conditions: Autotaxin 5 nM, LPC 100 μM, choline oxidase/HRP/Ampliflu Red fluorescence read-out, 2% DMSO, RT; read-out: IC50 ATX Activity
Summary of the method: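 Choline liberated from LPC by autotaxin during 1 h, after a 10-min RT compound preincubation, was converted through choline oxidase/HRP to a fluorescent Ampliflu Red product.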

Row | Compound | IC50 [µM]
1 | CC(C)[C@@H](NC(=O)c1cc(C(F)(F)F)ccc1F)C(=O)N1CCC2(CC1)C(=O)N(CCN(C)C)CN2c1ccc(C(=O)O)cc1 [Example 238, (R)-4-(3-(2-(Dimethylamino)ethyl)-8-(2-(2-fluoro-5-(trifluoromethyl)benzamido)-3-methylbutanoyl)-4-oxo-1,3,8-triazaspiro[4.5]decan-1-yl)benzoic Acid trifluoroacetic Acid Salt] | < 0.5
2 | CC(C)[C@@H](NC(=O)c1cc(C(F)(F)F)ccc1F)C(=O)N1CCC2(CC1)C(=O)N(C)C(=O)N2c1ccncc1 [Example 239, (R)-2-Fluoro-N-(3-methyl-1-(3-methyl-2,4-dioxo-1-(pyridin-4-yl)-1,3,8-triazaspiro[4.5]decan-8-yl)-1-oxobutan-2-yl)-5-(trifluoromethyl)benzamide] | < 0.5
3 | CC(C)[C@@H](NC(=O)c1cc(C(F)(F)F)ccc1F)C(=O)N1CCC2(CC1)C(=O)N(C)C(=O)N2c1cc[n+]([O-])cc1 [Example 240, (R)-4-(8-(2-(2-Fluoro-5-(trifluoromethyl)benzamido)-3-methylbutanoy)-3-methyl-2,4-dioxo-1,3,8-triazaspiro[4.5]decan-1-yl)pyridine 1-oxide] | ≥ 1
4 | COC1CCC(N2C(=O)N(C)C(=O)C23CCN(C(=O)[C@H](NC(=O)c2cc(C(F)(F)F)ccc2F)C(C)C)CC3)CC1 (stereo partly drawn) [Example 241, (R)-2-Fluoro-N-(1-(1-(4-methoxycyclohexyl)-3-methyl-2,4-dioxo-1,3,8-triazaspiro[4.5]decan-8-yl)-3-methyl-1-oxobutan-2-yl)-5-(trifluoromethyl)benzamide] | ≥ 1
5 | CC(C)[C@@H](NC(=O)c1cc(C(F)(F)F)ccc1F)C(=O)N1CCC2(CC1)C(=O)N(C)C(=O)N2C1CCCCC1 [Example 242, (R)—N-(1-(1-Cyclohexyl-3-methyl-2,4-dioxo-1,3,8-triazaspiro[4.5]decan-8-yl)-3-methyl-1-oxobutan-2-yl)-2-fluoro-5-(trifluoromethyl)benzamide] | < 0.5
6 | CC(C)[C@@H](NC(=O)c1cc(C(F)(F)F)ccc1F)C(=O)N1CCC2(CC1)C(=O)N(C)C(=O)N2c1ccc2ocnc2c1 [Example 245, (R)—N-(1-(1-(Benzo[d]oxazol-5-yl)-3-methyl-2,4-dioxo-1,3,8-triazaspiro[4.5]decan-8-yl)-3-methyl-1-oxobutan-2-yl)-2-fluoro-5-(trifluoromethyl)benzamide] | < 0.5
7 | Cc1nc2cc(N3C(=O)N(C)C(=O)C34CCN(C(=O)[C@H](NC(=O)c3cc(C(F)(F)F)ccc3F)C(C)C)CC4)ccc2o1 [Example 246, (R)—N-(1-(1-(2-Methylbenzo[d]oxazol-5-yl)-3-methyl-2,4-dioxo-1,3,8-triazaspiro[4.5]decan-8-yl)-3-methyl-1-oxobutan-2-yl)-2-fluoro-5-(trifluoromethyl)benzamide] | < 0.5
